Earlier results as cited in patent US8071619B2, “Injectable liquid formulation of paracetamol” (priority 2003, dated 2011).

Conditions: aqueous solution; K. T. Koshy et al., 1961

Structure (SMILES): CC(=O)Nc1ccc(O)cc1 [paracetamol, N-(4-hydroxy-phenyl)acetamide]
- pH at which the rate of degradation of paracetamol is minimal: ~6
